{"source": "patent US6743821B2", "about": "“Glycerol-lactate esters for use as an energy supplement during exercise and recovery” (priority 2001, dated 2004)", "origin": "cited, not measured here", "key": {"isolated working hearts": {"test_system": "isolated working hearts", "details": "concentrated sodium lactate added to hearts from shocked animals"}, "[1]": {"details": "blood of Wistar rats"}}}
{"compound": "CC(O)C(=O)[O-].[Na+]", "note": "(centres unmarked) [sodium lactate]", "values": [{"measurement": "performance of isolated working hearts", "setting": "isolated working hearts", "value": "significantly enhanced"}]}
{"compound": "[13CH3]C(=O)C(=O)O", "note": "[[3-^13C]pyruvate]", "values": [{"measurement": "conversion of the infused tracer in the blood", "setting": "[1]", "value": "quickly converted to [3-^13C]lactate"}]}
